In publication PMC12136031 (Science Advances, 2025):
Where two headings read alike, the source gives them in different places.

Assays:
[1] = biological target: T1, DCAF7-TFEB interaction (Homo sapiens, UniProt P61962); experiment: Proximity ligation assay of TFEB and DCAF7 in BEAS-2B cells; format: cell-based
T1 construct: endogenous in cells; host or cells: BEAS-2B

[2] = tested on: TFEB; experiment: TFEB protein level / nuclear localization in BEAS-2B cells; format: cell-based, human; details: in the presence of DCAF7 (WT vs DCAF7 KO BEAS-2B), 18 hours
[3] = biological target: T2, HRH1 (Homo sapiens, UniProt P35367); experiment: Safety47 Calcium Flux HRH1; format: cell-based; details: for Emax: read-out: Max Response; for EC50: read-out: RC50 (EC50); for IC50: read-out: RC50 (IC50)
T2 construct: purchased Eurofins Panlab Safety47 Safety Scan

[4] = biological target: T3, HTR2A (Homo sapiens, UniProt P28223); experiment: Safety47 Calcium Flux HTR2A; format: cell-based; details: for Emax: read-out: Max Response; for EC50: read-out: RC50 (EC50); for IC50: read-out: RC50 (IC50)
T3 construct: purchased Eurofins Panlab Safety47 Safety Scan

[5] = biological target: T4, HTR2B (Homo sapiens, UniProt P41595); experiment: Safety47 Calcium Flux HTR2B; format: cell-based; details: for Emax: read-out: Max Response; for EC50: read-out: RC50 (EC50); for IC50: read-out: RC50 (IC50)
T4 construct: purchased Eurofins Panlab Safety47 Safety Scan

[6] = biological target: T5, ADRB2 (Homo sapiens, UniProt P07550); experiment: Safety47 cAMP ADRB2; format: cell-based; details: for Emax: read-out: Max Response; for EC50: read-out: RC50 (EC50); for IC50: read-out: RC50 (IC50)
T5 construct: purchased Eurofins Panlab Safety47 Safety Scan

[7] = biological target: T6, DRD1 (Homo sapiens, UniProt P21728); experiment: Safety47 cAMP DRD1; format: cell-based; details: for Emax: read-out: Max Response; for EC50: read-out: RC50 (EC50); for IC50: read-out: RC50 (IC50)
T6 construct: purchased Eurofins Panlab Safety47 Safety Scan

[8] = biological target: T7, HTR1A (Homo sapiens, UniProt P08908); experiment: Safety47 cAMP HTR1A; format: cell-based; details: for Emax: read-out: Max Response; for EC50: read-out: RC50 (EC50); for IC50: read-out: RC50 (IC50)
T7 construct: purchased Eurofins Panlab Safety47 Safety Scan
T7 sequence (P08908 1-422): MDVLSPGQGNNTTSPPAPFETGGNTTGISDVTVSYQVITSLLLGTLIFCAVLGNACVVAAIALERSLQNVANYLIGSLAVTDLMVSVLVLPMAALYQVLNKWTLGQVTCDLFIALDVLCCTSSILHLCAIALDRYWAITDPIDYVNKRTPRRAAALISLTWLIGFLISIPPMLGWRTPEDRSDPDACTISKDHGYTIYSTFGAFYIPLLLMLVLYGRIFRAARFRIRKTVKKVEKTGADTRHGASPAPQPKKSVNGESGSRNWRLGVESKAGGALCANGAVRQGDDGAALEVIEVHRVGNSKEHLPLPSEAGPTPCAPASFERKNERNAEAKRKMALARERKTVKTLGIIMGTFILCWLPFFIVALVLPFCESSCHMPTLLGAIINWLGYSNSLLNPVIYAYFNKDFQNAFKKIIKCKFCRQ

[9] = biological target: T8, HTR1B (Homo sapiens, UniProt P28222); experiment: Safety47 cAMP HTR1B; format: cell-based; details: for Emax: read-out: Max Response; for EC50: read-out: RC50 (EC50); for IC50: read-out: RC50 (IC50)
T8 construct: purchased Eurofins Panlab (Safety47 Safety Scan, contract panel)

[10] = biological target: T9, OPRK1 (Homo sapiens, UniProt P41145); experiment: Safety47 cAMP OPRK1; format: cell-based; details: for Emax: read-out: Max Response; for EC50: read-out: RC50 (EC50); for IC50: read-out: RC50 (IC50)
T9 construct: purchased Eurofins Panlab (Safety47 Safety Scan, contract panel)

[11] = biological target: T10, KvLQT1/minK (Homo sapiens, UniProt P51787); experiment: Safety47 Ion Channel KvLQT1/minK; format: cell-based; details: for Emax: read-out: Max Response; for IC50: read-out: RC50 (IC50); for EC50: read-out: RC50 (EC50)
T10 construct: purchased Eurofins Panlab (Safety47 Safety Scan, contract panel)

[12] = biological target: T11, nAChR(a4/b2) (Homo sapiens, UniProt P17787+P43681); experiment: Safety47 Ion Channel nAChR(a4/b2); format: cell-based; details: for Emax: read-out: Max Response; for IC50: read-out: RC50 (IC50); for EC50: read-out: RC50 (EC50)
T11 construct: purchased Eurofins Panlab (Safety47 Safety Scan, contract panel)

[13] = biological target: T12, VEGFR2 (Homo sapiens, UniProt P35968); experiment: Safety47 Kinase Binding VEGFR2; details: Kinases, Inhibitor; for Emax: read-out: Max Response; for IC50: read-out: RC50 (IC50)
T12 construct: purchased Eurofins Panlab (Safety47 Safety Scan, contract panel)

[14] = biological target: T13, GR (Homo sapiens, UniProt P04150); experiment: Safety47 NHR Protein Interaction GR; format: cell-based; details: for Emax: read-out: Max Response; for EC50: read-out: RC50 (EC50); for IC50: read-out: RC50 (IC50)
T13 construct: purchased Eurofins Panlab (Safety47 Safety Scan, contract panel)
T13 sequence (P04150 1-777): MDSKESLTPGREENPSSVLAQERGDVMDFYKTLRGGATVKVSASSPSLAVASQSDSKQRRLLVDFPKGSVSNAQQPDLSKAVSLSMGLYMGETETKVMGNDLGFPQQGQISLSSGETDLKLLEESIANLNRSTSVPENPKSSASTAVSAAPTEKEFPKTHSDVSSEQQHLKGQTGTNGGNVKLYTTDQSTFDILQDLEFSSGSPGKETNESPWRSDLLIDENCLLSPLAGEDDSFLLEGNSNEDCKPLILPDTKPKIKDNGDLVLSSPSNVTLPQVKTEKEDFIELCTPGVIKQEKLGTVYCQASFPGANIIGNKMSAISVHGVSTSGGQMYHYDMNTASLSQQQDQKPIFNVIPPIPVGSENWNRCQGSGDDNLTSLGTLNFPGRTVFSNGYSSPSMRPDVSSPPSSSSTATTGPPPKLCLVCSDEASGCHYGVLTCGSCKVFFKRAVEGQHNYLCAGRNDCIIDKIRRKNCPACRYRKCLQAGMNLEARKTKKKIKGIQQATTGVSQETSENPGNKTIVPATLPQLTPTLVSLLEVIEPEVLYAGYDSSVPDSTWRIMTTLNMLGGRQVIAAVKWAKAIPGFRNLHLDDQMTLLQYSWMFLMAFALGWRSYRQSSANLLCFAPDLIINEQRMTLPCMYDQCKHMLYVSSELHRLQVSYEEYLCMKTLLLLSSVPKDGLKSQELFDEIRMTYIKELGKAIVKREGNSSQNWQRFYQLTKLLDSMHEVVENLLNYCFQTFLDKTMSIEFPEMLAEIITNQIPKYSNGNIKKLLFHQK

[15] = biological target: T14, AChE (Homo sapiens, UniProt P22303); experiment: Safety47 Enzymatic AChE; format: biochemical; details: Inhibitor; for Emax: read-out: Max Response; for IC50: read-out: RC50 (IC50)
T14 construct: purchased Eurofins Panlab (Safety47 Safety Scan, contract panel)

[16] = biological target: T15, PDE3A (Homo sapiens, UniProt Q14432); experiment: Safety47 Enzymatic PDE3A; format: biochemical; details: Inhibitor; for Emax: read-out: Max Response; for IC50: read-out: RC50 (IC50)
T15 construct: purchased Eurofins Panlab (Safety47 Safety Scan, contract panel)

[17] = biological target: T16, NET (Homo sapiens, UniProt P23975); experiment: Safety47 Transporter NET; format: cell-based; details: Blocker; for Emax: read-out: Max Response; for IC50: read-out: RC50 (IC50)
T16 construct: purchased Eurofins Panlab Safety47 Safety Scan
T16 sequence (P23975 whole entry): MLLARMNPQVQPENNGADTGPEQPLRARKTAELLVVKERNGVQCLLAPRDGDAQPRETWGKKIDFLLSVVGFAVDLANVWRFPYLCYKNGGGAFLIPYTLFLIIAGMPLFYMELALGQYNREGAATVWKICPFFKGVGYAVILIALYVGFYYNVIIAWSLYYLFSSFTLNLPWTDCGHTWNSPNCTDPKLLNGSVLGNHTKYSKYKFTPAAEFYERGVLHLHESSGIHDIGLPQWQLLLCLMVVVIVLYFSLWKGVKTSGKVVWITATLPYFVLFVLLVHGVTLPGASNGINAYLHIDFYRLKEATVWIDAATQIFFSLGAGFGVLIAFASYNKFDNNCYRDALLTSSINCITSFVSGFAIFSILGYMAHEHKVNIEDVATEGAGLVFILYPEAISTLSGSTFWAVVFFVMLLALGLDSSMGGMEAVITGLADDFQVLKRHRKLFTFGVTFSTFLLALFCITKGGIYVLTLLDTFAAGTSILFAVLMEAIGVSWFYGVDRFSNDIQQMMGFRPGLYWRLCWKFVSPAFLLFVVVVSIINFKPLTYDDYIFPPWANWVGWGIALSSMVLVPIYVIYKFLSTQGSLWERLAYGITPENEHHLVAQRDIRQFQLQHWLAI

T15 sequence (Q14432 whole entry, species assumed): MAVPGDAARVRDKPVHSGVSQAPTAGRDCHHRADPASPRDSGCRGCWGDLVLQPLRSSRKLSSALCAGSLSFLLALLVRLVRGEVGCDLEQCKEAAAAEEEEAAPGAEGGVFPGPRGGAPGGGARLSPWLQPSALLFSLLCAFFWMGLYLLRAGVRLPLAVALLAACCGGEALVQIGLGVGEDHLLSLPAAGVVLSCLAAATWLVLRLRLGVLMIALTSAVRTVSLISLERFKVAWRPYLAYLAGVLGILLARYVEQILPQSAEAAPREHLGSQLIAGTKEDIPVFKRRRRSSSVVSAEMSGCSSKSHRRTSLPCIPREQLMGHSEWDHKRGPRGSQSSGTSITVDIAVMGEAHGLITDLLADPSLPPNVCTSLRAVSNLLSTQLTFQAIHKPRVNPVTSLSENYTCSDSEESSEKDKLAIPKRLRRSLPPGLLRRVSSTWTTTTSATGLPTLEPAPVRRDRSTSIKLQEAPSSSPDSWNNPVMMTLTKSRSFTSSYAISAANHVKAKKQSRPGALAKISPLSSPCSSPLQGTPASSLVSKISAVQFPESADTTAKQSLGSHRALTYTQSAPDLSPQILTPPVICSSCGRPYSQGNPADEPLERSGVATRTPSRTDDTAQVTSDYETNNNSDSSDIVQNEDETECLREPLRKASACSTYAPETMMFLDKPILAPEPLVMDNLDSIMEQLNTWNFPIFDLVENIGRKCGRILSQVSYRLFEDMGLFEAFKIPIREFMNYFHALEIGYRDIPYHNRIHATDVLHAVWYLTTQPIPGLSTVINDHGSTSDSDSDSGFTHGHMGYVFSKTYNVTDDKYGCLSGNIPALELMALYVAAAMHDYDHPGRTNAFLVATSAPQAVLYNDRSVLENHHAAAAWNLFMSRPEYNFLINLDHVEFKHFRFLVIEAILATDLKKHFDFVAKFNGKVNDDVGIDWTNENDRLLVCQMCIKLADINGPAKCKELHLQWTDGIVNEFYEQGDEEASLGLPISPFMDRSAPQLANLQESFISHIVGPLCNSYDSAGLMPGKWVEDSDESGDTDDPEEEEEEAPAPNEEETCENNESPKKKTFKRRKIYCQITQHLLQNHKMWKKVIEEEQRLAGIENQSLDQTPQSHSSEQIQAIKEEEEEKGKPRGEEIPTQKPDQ
T2 sequence (P35367 whole entry): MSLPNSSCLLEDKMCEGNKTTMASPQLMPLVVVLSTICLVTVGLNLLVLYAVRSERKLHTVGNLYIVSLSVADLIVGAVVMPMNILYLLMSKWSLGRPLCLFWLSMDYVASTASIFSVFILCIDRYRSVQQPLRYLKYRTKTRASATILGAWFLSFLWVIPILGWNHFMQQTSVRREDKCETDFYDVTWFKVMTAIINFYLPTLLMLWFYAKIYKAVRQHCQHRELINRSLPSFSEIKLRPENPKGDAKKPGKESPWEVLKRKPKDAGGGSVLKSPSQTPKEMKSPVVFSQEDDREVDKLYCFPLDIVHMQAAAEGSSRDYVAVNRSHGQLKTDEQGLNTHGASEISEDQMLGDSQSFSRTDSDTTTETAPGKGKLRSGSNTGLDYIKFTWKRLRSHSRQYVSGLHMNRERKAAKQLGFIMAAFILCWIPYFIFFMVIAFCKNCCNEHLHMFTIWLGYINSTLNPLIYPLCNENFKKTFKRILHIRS
T6 sequence (P21728 whole entry): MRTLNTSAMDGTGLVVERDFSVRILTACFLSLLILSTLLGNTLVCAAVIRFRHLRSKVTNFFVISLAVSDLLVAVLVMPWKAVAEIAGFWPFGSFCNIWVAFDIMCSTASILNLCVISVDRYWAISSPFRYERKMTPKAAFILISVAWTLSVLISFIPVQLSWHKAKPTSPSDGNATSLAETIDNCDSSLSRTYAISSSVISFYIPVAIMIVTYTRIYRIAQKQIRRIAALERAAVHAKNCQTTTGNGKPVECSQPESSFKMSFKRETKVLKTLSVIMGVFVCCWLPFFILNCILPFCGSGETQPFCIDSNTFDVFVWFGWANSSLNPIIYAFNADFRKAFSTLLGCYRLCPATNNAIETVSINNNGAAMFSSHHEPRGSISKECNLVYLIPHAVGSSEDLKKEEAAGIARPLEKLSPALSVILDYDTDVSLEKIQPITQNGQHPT
T12 sequence (P35968 20-1356, species assumed): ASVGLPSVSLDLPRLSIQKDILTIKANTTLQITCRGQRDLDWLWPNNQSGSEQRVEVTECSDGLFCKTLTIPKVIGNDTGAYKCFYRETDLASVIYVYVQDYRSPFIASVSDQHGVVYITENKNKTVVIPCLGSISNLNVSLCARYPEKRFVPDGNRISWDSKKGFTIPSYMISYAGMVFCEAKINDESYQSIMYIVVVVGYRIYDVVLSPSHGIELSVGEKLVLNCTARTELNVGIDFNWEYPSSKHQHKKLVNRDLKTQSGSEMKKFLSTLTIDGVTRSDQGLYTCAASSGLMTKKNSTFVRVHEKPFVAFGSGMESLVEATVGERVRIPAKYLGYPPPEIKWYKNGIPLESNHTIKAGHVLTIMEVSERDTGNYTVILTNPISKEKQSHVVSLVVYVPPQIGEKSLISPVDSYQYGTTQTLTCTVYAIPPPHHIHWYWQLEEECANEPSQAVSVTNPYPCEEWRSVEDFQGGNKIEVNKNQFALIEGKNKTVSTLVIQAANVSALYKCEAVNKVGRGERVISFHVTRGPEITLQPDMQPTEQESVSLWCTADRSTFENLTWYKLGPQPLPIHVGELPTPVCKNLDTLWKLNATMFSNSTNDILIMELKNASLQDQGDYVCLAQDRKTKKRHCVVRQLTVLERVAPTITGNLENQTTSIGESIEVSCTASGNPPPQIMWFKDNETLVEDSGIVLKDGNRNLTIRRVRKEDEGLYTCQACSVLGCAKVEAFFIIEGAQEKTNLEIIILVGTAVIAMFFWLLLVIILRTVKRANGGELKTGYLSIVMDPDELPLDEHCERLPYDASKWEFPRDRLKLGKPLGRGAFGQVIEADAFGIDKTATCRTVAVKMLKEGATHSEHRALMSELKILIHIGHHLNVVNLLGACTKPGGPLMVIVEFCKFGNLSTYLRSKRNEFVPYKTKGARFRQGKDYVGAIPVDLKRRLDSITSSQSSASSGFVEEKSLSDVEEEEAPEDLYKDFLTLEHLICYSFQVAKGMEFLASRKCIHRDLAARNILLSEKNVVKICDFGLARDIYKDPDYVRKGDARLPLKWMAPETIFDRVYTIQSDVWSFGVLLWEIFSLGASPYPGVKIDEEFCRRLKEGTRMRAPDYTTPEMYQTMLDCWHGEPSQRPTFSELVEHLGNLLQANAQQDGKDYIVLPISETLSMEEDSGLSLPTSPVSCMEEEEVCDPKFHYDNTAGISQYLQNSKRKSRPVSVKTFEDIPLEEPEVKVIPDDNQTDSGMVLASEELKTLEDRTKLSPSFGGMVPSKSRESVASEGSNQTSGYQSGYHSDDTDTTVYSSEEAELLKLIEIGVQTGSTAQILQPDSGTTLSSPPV
T4 sequence (P41595 whole entry): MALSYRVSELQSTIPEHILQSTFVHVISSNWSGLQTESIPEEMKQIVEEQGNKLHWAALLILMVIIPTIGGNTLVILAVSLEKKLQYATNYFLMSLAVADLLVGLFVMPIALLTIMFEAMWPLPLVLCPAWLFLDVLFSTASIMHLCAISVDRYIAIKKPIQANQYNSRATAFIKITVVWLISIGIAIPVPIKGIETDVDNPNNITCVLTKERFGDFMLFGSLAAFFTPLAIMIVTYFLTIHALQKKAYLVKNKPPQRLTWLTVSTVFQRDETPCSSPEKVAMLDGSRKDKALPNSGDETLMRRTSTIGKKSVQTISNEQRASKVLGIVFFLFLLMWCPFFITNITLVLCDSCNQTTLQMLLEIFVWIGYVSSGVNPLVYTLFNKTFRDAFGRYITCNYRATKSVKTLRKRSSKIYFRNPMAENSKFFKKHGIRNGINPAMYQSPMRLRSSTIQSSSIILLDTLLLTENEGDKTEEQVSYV
T5 sequence (P07550 whole entry): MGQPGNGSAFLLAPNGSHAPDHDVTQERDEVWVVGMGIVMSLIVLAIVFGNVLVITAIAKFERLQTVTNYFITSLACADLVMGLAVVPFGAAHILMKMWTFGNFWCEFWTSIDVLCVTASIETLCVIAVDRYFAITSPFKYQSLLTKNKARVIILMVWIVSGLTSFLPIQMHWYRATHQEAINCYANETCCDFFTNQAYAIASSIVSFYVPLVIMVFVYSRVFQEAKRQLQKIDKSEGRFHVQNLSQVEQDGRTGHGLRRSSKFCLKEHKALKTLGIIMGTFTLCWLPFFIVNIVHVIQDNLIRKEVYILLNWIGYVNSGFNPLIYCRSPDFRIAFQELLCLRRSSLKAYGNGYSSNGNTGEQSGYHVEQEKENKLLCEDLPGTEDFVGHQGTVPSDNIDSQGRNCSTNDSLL

## Cl.c1ccc2c(Nc3ccc4[nH]ccc4c3)nc(-c3ccncc3)nc2c1 [BC18630, N-1H-indol-5-yl-2-pyridin-4-ylquinazolin-4-amine hydrochloride]
[1]
  Nuclear protein-protein interaction between DCAF7 and TFEB (PLA): largely reduced
[2]
  TFEB protein level: increased
[3]; Agonist
  Emax: 0%
  EC50: > 10 µM
[3]; Antagonist
  Emax: 0%
  IC50: > 10 µM
[4]; Agonist
  Emax: 4.44%
  EC50: > 10 µM
[4]; Antagonist
  Emax: 22.5%
  IC50: > 10 µM
[5]; Agonist
  Emax: 5.41%
  EC50: > 10 µM
[5]; Antagonist
  Emax: 9.48%
  IC50: > 10 µM
[6]; Agonist
  Emax: 0%
  EC50: > 10 µM
[6]; Antagonist
  Emax: 37.3%
  IC50: > 10 µM
[7]; Agonist
  Emax: 0%
  EC50: > 10 µM
[7]; Antagonist
  Curve Bottom: 0
  Curve Top: 100
  Hill: 1.45
  Emax: 55.1%
  IC50: 8.45 µM
[8]; Agonist
  Emax: 9.36%
  EC50: > 10 µM
[8]; Antagonist
  Emax: 5.7%
  IC50: > 10 µM
[9]; Agonist
  Emax: 12.5%
  EC50: > 10 µM
[9]; Antagonist
  Emax: 5.74%
  IC50: > 10 µM
[10]; Agonist
  Emax: 8.98%
  EC50: > 10 µM
[10]; Antagonist
  Emax: 1%
  IC50: > 10 µM
[11]; Blocker
  Emax: 21.4%
  IC50: > 10 µM
[11]; Opener
  Emax: 6.18%
  EC50: > 10 µM
[12]; Blocker
  Emax: 12.4%
  IC50: > 10 µM
[12]; Opener
  Emax: 0%
  EC50: > 10 µM
[13]
  Emax: 13.7%
  IC50: > 10 µM
[14]; Agonist
  Emax: 0%
  EC50: > 10 µM
[14]; Antagonist
  Emax: 0%
  IC50: > 10 µM
[15]
  Emax: 21.2%
  IC50: > 10 µM
[16]
  Emax: 8.9%
  IC50: > 10 µM
[17]
  Emax: 0%
  IC50: > 10 µM

## Cl.Fc1cc(Nc2nc(-c3ccncc3)nc3ncccc23)cc2cc[nH]c12 [BC18813, N-(7-fluoro-1H-indol-5-yl)-2-pyridin-4-ylpyrido[2,3-d]pyrimidin-4-amine hydrochloride]
[1]
  Nuclear protein-protein interaction between DCAF7 and TFEB (PLA): largely reduced
[2]
  TFEB protein level: increased
[3]; Agonist
  Emax: 1.49%
  EC50: > 10 µM
[3]; Antagonist
  Emax: 6.52%
  IC50: > 10 µM
[4]; Agonist
  Emax: 0.95%
  EC50: > 10 µM
[4]; Antagonist
  Emax: 25.6%
  IC50: > 10 µM
[5]; Agonist
  Emax: 2.91%
  EC50: > 10 µM
[5]; Antagonist
  Emax: 31.3%
  IC50: > 10 µM
[6]; Agonist
  Emax: 0%
  EC50: > 10 µM
[6]; Antagonist
  Emax: 41.9%
  IC50: > 10 µM
[7]; Agonist
  Emax: 0%
  EC50: > 10 µM
[7]; Antagonist
  Curve Bottom: 0
  Curve Top: 100
  Hill: 1.19
  Emax: 50.1%
  IC50: 9.45 µM
[8]; Agonist
  Emax: 13%
  EC50: > 10 µM
[8]; Antagonist
  Emax: 0%
  IC50: > 10 µM
[9]; Agonist
  Emax: 27.4%
  EC50: > 10 µM
[9]; Antagonist
  Emax: 0.13%
  IC50: > 10 µM
[10]; Agonist
  Emax: 24.3%
  EC50: > 10 µM
[10]; Antagonist
  Emax: 0%
  IC50: > 10 µM
[11]; Blocker
  Emax: 12.9%
  IC50: > 10 µM
[11]; Opener
  Emax: 3.89%
  EC50: > 10 µM
[12]; Blocker
  Emax: 0%
  IC50: > 10 µM
[12]; Opener
  Emax: 0%
  EC50: > 10 µM
[13]
  Emax: 0.27%
  IC50: > 10 µM
[14]; Agonist
  Emax: 4.56%
  EC50: > 10 µM
[14]; Antagonist
  Emax: 7.56%
  IC50: > 10 µM
[15]
  Emax: 6.26%
  IC50: > 10 µM
[16]
  Emax: 28.2%
  IC50: > 10 µM
[17]
  Emax: 9.94%
  IC50: > 10 µM
